Patent US20090093493A1, “1-PHENYLALCOXY-2-BETA-PHENYLETHYL DERIVATIVES AS P-GLYCOPROTEIN (P-GP) INHIBITORS USEFUL IN DRUG RESISTANCE EVENTS” (priority 2007, published 2009)
Read-outs that look alike come from different tables or passages of the source.

Assays:
P-gp [1] = target: T1, P-gp (Homo sapiens, UniProt P08183); conditions: reported in literature; cited from earlier work
P-gp [2] = target: T1, P-gp; assay: Classification of compounds interfering with P-gp activity (method of Polli et al. / Taub et al.); format: cell-based; set-up: apparent permeability determined in Caco-2 cells; endogenous in cells; host or cells: Caco-2; conditions: above-described assays
Description: The biological assays performed verify a) transport for each for each candidate compound by P-gp (apparent permeability determined in Caco-2 cells); b) ATP-ase activation in Caco-2 cells; c) inhibition of [^3H] Vinblastine basolateral-apical transport (in Caco-2 cells) and of rhodamine (in guinea pig ileum).

P-glycoprotein [3] = target: T2, P-glycoprotein (Homo sapiens, UniProt P08183)
T2 sequence (P08183 whole entry): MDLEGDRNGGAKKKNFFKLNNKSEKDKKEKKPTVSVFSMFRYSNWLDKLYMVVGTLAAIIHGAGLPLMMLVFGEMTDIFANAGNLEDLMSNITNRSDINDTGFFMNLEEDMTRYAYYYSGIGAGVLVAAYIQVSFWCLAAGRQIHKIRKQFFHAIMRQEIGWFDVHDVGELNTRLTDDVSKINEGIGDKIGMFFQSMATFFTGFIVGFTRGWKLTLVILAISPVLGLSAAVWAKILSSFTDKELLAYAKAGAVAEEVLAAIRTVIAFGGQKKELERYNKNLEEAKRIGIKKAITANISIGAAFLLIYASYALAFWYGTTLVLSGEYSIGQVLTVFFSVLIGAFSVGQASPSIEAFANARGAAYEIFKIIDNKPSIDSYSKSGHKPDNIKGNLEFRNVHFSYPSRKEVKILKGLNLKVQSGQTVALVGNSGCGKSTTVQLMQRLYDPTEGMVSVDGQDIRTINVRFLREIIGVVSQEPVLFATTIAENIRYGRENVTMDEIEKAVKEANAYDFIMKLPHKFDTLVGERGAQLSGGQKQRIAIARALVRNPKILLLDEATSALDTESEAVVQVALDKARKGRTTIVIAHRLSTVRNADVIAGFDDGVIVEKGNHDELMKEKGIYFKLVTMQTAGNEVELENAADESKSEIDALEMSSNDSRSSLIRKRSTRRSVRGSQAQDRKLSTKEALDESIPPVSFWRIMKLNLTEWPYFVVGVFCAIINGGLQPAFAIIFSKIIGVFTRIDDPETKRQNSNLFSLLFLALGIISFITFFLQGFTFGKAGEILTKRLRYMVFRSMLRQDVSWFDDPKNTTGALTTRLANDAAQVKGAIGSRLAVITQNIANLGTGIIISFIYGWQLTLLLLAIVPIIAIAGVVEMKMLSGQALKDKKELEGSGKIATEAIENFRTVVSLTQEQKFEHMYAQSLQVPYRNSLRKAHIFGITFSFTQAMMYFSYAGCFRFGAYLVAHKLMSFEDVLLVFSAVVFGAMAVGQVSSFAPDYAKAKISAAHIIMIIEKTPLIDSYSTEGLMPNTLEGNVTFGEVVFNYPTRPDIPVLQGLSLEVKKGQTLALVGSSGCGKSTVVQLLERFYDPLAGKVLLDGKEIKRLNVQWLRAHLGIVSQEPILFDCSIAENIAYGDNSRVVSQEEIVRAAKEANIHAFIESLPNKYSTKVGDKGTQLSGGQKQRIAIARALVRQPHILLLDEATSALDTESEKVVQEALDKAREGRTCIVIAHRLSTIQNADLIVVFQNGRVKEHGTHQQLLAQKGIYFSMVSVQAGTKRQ
Protocol: (§1) Another assay is performed on MCF-7/ADr cells. These cells, resistant to the chemotherapy agent doxorubicin, are exposed for some hours to the compound under examination and subsequently treated with doxorubicin. The amount of doxorubicin entering the cell following treatment with the compounds under examination is then measured.
(§2) At the end of the incubation, the incubation medium containing the compound under examination was removed, and fresh medium containing 50 μM doxorubicin was added for 24 h. The negative control consisted of plates containing an alike number of cells untreated with the compound. At the end of the 24 h, the medium was removed and the cells split and prepared according to standard procedure for flow cytometry analysis.

P-glycoprotein [4] = target: T2, P-glycoprotein; assay: Doxorubicin accumulation in MCF7/Adr cells after pretreatment with compound (flow cytometry); conditions: for endocellular accumulation: above-described assays
Protocol: as §1, §2

[5] = MCF7/Adr, 20 μM compound for 120 min, then 50 μM doxorubicin for 24 h

T1 sequence (P08183 whole entry): as above

inletting of doxorubicin in the cells (P-glycoprotein [4]; [5])	endocellular accumulation (P-glycoprotein [4])	Compound	also measured
		COc1cc2c(cc1OC)CN(CCc1ccc(NC(=O)c3cccc4c(=O)c5cccc(OC)c5[nH]c34)cc1)CC2 [GF120918]	classification as pure inhibitor of P-gp (P-gp [1]): sole pure inhibitor of P-gp
		c1ccc(CCc2ccccc2OCc2ccccc2)cc1 [EB 30, 1-(benzyloxy)-2-(2-phenylethyl)benzene]	Category of interference with P-gp activity (P-gp [2]): IIB
		COc1cccc(CCc2ccccc2OCCCN2CCN(c3ncccn3)CC2)c1 [EB25, 3-{2-[2-(3-methoxyphenyl)ethyl]phenoxy}propan-1-[4-(2-pyrimidyl)piperazine]]	endocellular accumulation (P-glycoprotein [3]): very high
increase	very high	COc1cccc(CCc2ccccc2OCc2cccc(OC)c2)c1 [EB27, 1-[(3-methoxybenzyl)oxy]-2-[2-(3-methoxyphenyl)ethyl]benzene]	
increase	very high	COc1cccc(CCc2ccccc2OCc2ccccn2)c1 [EB12, 2({2-[2-(3-methoxyphenyl)ethyl]phenoxy}methyl]pyridine]	effectiveness in P-glycoprotein inhibition relative to Verapamil and EB27 (P-glycoprotein [4]; [5]): 5 fold
